Measured values reported in patent US6528504B2, “Oxazepine derivatives and medicine containing the same” (Ajinomoto Co., Inc., priority 1999, dated 2003).
Where a name gives a salt, the structure may show the parent alone.

Tests used:
[1] = molecular target: calcium channel (blood vessel, thoracic aorta) (Rattus norvegicus, UniProt P22002); test: In vitro calcium channel antagonistic effect (blood vessel): inhibition of high potassium contraction of helical thoracic aorta samples; details: high potassium (45.0 mM KCl) contraction, 10^−7 M test compound, 30 minute pretreatment, read-out: Inhibition rate (%) (conc: 10^−7 M)
Description: In vitro calcium channel antagonistic effect (blood vessel)
(§1) The thoracic aorta was extracted from each of male Crj:CD rats (8 to 12 weeks old) to prepare helical samples. The blood vessel samples were suspended in 37° C. Tyrode's solution through which a gaseous mixture (95% of oxygen and 5% of carbon dioxide) was passed. For examining the change in tensile strength of the blood vessel, the isometry thereof was recorded on a pen-writing recorder through a transducer. The high potassium contraction was caused by exchanging the nutrient solution from Tyrode's solution to potassium-Tyrode's solution (94.6 mM of NaCl, 45.0 mM of KCl, 1.8 mM of CaCl2, 1.04 mM of MgCl2, 0.4 mM of NaH2PO4, 11.9 mM of NaHCO3 and 5.55 mM of glucose). The high potassium contraction-inhibiting effect of a test compound was evaluated by 30 minute pretreatment. Compound A described in European Patent No. 0404359A1 and compound B described in International Patent No. 9733885A1 were used as comparative substances. The calcium channel antagonistic activity was shown as the rate (%) of inhibition of control of high-calcium contraction with 10^−7 M test compound.

[2] = molecular target: calcium channel (ileum) (Rattus norvegicus, UniProt P22002); test: In vitro calcium channel antagonistic effect (ileum): inhibition of high potassium contraction of ileum samples; details: high potassium (45.0 mM KCl) contraction, 10^−7 M test compound, 30 minute pretreatment, read-out: Inhibition rate (%) (conc.: 10^−7M)
Description: In vitro calcium channel antagonistic effect (ileum)
as §1, with “ileum of” for “thoracic aorta was extracted from”, “was extracted at a part 3 cm apart from the ileocecal region.” for “to prepare helical samples.”, “ileum sample was” for “blood vessel samples were”, “ileum,” for “blood vessel,”, “isotonicity” for “isometry”

Chain of calcium channel (blood vessel, thoracic aorta) (P22002 whole entry): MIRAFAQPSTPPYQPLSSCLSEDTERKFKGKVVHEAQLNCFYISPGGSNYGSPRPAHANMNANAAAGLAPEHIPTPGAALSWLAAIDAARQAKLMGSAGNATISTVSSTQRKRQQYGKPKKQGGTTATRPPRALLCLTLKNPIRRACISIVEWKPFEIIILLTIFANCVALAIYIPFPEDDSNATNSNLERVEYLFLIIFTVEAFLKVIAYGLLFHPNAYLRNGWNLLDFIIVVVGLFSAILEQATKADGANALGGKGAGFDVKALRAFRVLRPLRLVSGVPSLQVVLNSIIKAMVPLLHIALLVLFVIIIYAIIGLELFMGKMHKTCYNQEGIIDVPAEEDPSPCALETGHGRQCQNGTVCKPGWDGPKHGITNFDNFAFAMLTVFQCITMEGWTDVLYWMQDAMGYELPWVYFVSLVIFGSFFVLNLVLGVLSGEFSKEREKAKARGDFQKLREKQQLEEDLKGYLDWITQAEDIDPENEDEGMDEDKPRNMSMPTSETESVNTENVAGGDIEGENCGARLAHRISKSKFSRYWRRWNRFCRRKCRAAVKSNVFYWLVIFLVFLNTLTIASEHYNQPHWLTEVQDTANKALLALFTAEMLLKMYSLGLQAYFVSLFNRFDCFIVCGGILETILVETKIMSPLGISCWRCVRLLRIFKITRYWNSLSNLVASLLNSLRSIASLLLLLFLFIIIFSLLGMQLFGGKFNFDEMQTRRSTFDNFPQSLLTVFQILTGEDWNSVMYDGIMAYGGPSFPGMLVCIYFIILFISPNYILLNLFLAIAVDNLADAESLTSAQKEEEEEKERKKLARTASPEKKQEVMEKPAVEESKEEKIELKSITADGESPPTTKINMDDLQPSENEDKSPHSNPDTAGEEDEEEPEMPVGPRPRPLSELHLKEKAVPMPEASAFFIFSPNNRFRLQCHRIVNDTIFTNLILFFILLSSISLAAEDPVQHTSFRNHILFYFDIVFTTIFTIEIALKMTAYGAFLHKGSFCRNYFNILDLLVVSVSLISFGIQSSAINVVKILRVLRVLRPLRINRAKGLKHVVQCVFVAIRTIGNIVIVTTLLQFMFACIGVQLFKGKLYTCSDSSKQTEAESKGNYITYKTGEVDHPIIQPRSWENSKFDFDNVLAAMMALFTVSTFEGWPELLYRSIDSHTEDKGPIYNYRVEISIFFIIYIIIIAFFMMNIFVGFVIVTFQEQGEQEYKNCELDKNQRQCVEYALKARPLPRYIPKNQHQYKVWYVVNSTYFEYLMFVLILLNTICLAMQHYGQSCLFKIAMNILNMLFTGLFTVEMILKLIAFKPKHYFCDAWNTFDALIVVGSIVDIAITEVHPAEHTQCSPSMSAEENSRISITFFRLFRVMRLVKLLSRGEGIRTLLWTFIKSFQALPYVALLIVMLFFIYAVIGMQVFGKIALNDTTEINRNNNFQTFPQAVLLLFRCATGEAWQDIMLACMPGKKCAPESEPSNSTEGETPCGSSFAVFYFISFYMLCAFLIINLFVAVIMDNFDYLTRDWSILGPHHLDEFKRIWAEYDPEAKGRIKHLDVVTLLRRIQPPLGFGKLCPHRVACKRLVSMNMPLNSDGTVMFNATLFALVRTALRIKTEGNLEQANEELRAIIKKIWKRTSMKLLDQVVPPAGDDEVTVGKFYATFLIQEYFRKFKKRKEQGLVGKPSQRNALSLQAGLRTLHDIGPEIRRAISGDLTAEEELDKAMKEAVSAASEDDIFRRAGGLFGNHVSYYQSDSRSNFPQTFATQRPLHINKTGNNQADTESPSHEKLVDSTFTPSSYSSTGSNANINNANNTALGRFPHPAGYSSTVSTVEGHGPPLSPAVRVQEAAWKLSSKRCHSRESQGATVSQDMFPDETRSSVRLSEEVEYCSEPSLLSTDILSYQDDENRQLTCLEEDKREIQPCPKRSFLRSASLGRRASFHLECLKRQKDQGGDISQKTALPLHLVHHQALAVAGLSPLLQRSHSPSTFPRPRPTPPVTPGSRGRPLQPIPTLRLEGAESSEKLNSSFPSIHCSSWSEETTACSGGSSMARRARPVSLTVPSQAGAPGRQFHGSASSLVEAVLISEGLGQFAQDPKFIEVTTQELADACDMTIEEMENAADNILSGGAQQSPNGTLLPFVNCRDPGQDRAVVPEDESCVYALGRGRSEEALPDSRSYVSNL
Chain of calcium channel (ileum) (P22002 whole entry): as above

| SMILES | inhibition at 0.1 µM [1] [%] | inhibition at 0.1 µM [2] [%] | melting point [°C] |
| --- | --- | --- | --- |
| c1ccc2c(c1)COc1ccccc1N2C[C@H]1CCCCN1CCc1ccc2c(c1)OCO2 [Example 5, (R)-5,11-Dihydro-5-[1-(3,4-methylenedioxyphenethyl)piperidine-2-yl-methyl] dibenzo[b,e][1,4]oxazepine Hydrochloride] | 27 | 66 | – |
| CN(CCc1ccc2c(c1)OCO2)CCN1c2ccccc2COc2ccccc21 [Example 17, 5,11-Dihydro-5-[2-[N-methyl-N-(3,4-methylenedioxyphenethyl)amino]ethyl]dibenzo[b,e][1,4]oxazepine Hydrochloride] | 30 | 78 | – |
| COc1ccc(CCCN2CCCC[C@@H]2CN2c3ccccc3COc3ccccc32)cc1 [Example 4, (R)-5,11-Dihydro-5-[1-[3-(4-methoxyphenyl)propyl]piperidine-2-ylmethyl]dibenzo[b,e][1,4]oxazepine Hydrochloride] | 32 | 64 | – |
| COc1ccc(CCCN(C)CCN2c3ccccc3COc3ccccc32)cc1 [Example 16, 5,11-Dihydro-5-[2-[N -[3-(4-methoxyphenyl)propyl]-N-methylamino]ethyl]dibenzo[b,e][1,4]oxazepine Hydrochloride] | 28 | 82 | – |
| CN(CCc1ccc(Cl)cc1)CCN1c2ccccc2COc2ccccc21 [Example 18, 5-[2-[N-(4-chlorophenethyl)-N-methylamino]ethyl]-5,11-dihydrodibenzo [b,e][1,4]oxazepine Hydrochloride] | 34 | 70 | – |
| CN(C)c1ccc(CCN2CC[C@@H](N3c4ccccc4COc4ccccc43)C2)cc1.Cl [Example 10, (R)-5,11-Dihydro-5-[1-(4-dimethylaminophenethyl)pyrrolidine-3-yl]dibenzo[b,e][1,4]oxazepine Hydrochloride] | 59 | 116 | 219 to 220 |
| COc1ccc(CCN2CCCC[C@@H]2CN2c3ccccc3COc3ccccc32)cc1.Cl [Example 1, (R)-5,11-Dihydro-5-[1-(4-methoxyphenethyl)piperidine-2-ylmethyl]dibenzo[b,e][1,4]oxazepine Hydrochloride] | 38 | 90 | 199 to 201 |
| COc1cccc(CCN2CCCC[C@@H]2CN2c3ccccc3COc3ccccc32)c1 [Example 3, (R)-5,11-Dihydro-5-[1-(3-methoxyphenethyl)piperidine-2-ylmethyl] dibenzo[b,e][1,4]oxazepine Hydrochloride] | 33 | 61 | – |
| COc1ccc(CCN2CCC[C@@H]2CN2c3ccccc3COc3ccccc32)cc1 [Compound B, reference compound] | 17 | 67 | – |
| COc1ccc(CCN2CCCC2CN2c3ccccc3CSc3ccccc32)cc1 (centres unmarked) [Compound A, reference compound] | 9 | 48 | – |
| COc1ccc(CCN2CC[C@@H](N3c4ccccc4COc4ccccc43)C2)cc1.Cl [Example 8, (R)-5,11-Dihydro-5-[1-(4-methoxyphenethyl)pyrrolidine-3-yl] dibenzo[b,e][1,4]oxazepine Hydrochloride] | 52 | 100 | 224 to 226 |
| COc1ccc(CCN(C)CCN2c3ccccc3COc3ccccc32)cc1.Cl [Example 14, 5,11-Dihydro-5-[2-[N-(4-methoxyphenethyl)-N-methylamino]ethyl]dibenzo[b,e][1,4]oxazepine Hydrochloride] | 43 | 105 | 139 to 140 |
| c1ccc2c(c1)COc1ccccc1N2[C@@H]1CCN(CCc2ccc3c(c2)OCO3)C1 [Example 12, (R)-5,11-Dihydro-5-[1-(3,4-methylenedioxyphenethyl)pyrrolidine-3-yl]dibenzo[b,e][1,4]oxazepine Hydrochloride] | 51 | 77 | – |
| CN(CCc1cccc(N(C)C)c1)CCN1c2ccccc2COc2ccccc21 [Example 20, 5,11-Dihydro-5-[2-[N-(3-dimethylaminophenethyl)-N-methylamino]ethyl]dibenzo[b,e][1,4]oxazepine Dihydrochloride] | 28 | 50 | – |
| CN(C)c1ccc(CCN2CCCC[C@@H]2CN2c3ccccc3COc3ccccc32)cc1 [Example 7, (R)-5,11-Dihydro-5-[1-(4-dimethylaminophenethyl)piperidine-2-ylmethyl]dibenzo[b,e][1,4]oxazepine Dihydrochloride] | 23 | 78 | – |
| CN(CCc1ccc(N(C)C)cc1)CCN1c2ccccc2COc2ccccc21 [Example 19, 5,11-Dihydro-5-[2-[N-(4-dimethylaminophenethyl)-N-methylamino]ethyl]dibenzo[b,e][1,4]oxazepine Dihydrochloride] | 39 | 76 | – |
| Clc1ccc(CCN2CC[C@@H](N3c4ccccc4COc4ccccc43)C2)cc1 [Example 13, (R)-5-[1-(4-chlorophenethyl)pyrrolidine-3-yl]-5,11-dihydrodibenzo[b,e][1,4] oxazepine Hydrochloride] | 38 | 76 | – |
| Clc1ccc(CCN2CCCC[C@@H]2CN2c3ccccc3COc3ccccc32)cc1 [Example 6, (R)-5-[1-(4-chlorophenethyl)piperidine-2-ylmethyl]-5,11-dihydrodibenzo [b,e][1,4]oxazepine Hydrochloride] | 25 | 75 | – |
| COc1ccc(CCCN2CC[C@@H](N3c4ccccc4COc4ccccc43)C2)cc1 [Example 11, (R)-5,11-Dihydro-5-[1-[3-(4-methoxyphenyl)propyl]pyrrolidine-3-yl]dibenzo[b,e][1,4]oxazepine Hydrochloride] | 61 | 83 | – |
| COc1cccc(CCN(C)CCN2c3ccccc3COc3ccccc32)c1 [Example 15, 5,11-Dihydro-5-[2-[N-(3-methoxyphenethyl)-N-methylamino]ethyl]dibenzo[b,e][1,4]oxazepine Hydrochloride] | 29 | 82 | – |
